BindingDB's records for doi:10.1021/acs.jmedchem.6b01315 (Constellation Pharmaceuticals, 2016)

Each compound was assayed against Histone-lysine N-methyltransferase EZH2 (Homo sapiens, UniProt Q15910) (assay: Inhibition of EZH2 Y641F mutant in PRC2 complex (unknown origin) using RKQLATKAARK(Me3)SAPATGGVKKP-NH2 peptide substrate preincubated for 30 mins followed by addition of [3H]-SAM measured after 2 hrs by Topcount scintillation proximity assay).

Row | Compound | IC50 [nM]
1 | COc1cc(C)[nH]c(=O)c1CNC(=O)c1c(C)n([C@H](C)C2CCNCC2)c2ccccc12 | 3.9
2 | COc1cc(C)[nH]c(=O)c1CNC(=O)c1c(C)n([C@H](C)C2CCN(C)CC2)c2ccccc12 | 1.7
3 | COc1cc(C)[nH]c(=O)c1CNC(=O)c1c(C)n([C@H](C)C2CCN(C(=O)C(C)C)CC2)c2ccccc12 | 16
4 | COc1cc(C)[nH]c(=O)c1CNC(=O)c1c(C)n([C@H](C)C2CCN(C(=O)OC(C)C)CC2)c2ccccc12 | 4.1
5 | COc1cc(C)[nH]c(=O)c1CNC(=O)c1c(C)n([C@H](C)C2CCN(C(=O)N(C)C)CC2)c2ccccc12 | 8.9
6 | COc1cc(C)[nH]c(=O)c1CNC(=O)c1c(C)n([C@H](C)C2CCN(C3COC3)CC2)c2ccccc12 | 1.7
7 | CCOC(=O)CN1CCC([C@@H](C)n2c(C)c(C(=O)NCc3c(OC)cc(C)[nH]c3=O)c3ccccc32)CC1 | 2.5
8 | COc1cc(C)[nH]c(=O)c1CNC(=O)c1c(C)n([C@H](C)C2CCN(CCC(F)(F)F)CC2)c2ccccc12 | 4.8
9 | COc1cc(C)[nH]c(=O)c1CNC(=O)c1c(C)n([C@H](C)C2CCN(CC(F)(F)C(F)F)CC2)c2ccccc12 | 3.3
10 | COc1cc(C)[nH]c(=O)c1CNC(=O)c1c(C)n([C@H](C)C2CCN(CC(F)F)CC2)c2ccccc12 | 3.8
